# Source: patent US6914045B2, “Glycopeptide antibiotics” (Wyeth Holdings Corporation, priority 2001, dated 2005)
# Tests used:
# Experiment in all cases: in vitro antibacterial evaluation, MIC by broth dilution
# Assay type in all cases: cell-based
# Enterococcus sp. = conditions: broth dilution, 18 hours at 35° C.
# Summary of the method: (§1)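 Following National Committee for Clinical Laboratory Standards recommendations (M7-A2), susceptibility was measured by dilution in Muller-Hinton II […]. Bacteria were seeded at 5×10^5 CFU/mL against compound concentrations from 64 down to 0.06 μg/mL.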
# Staphylococcus sp. = conditions: broth dilution, 18 hours at 35° C.
# Summary of the method: as §1
# Streptococcus sp. = conditions: broth dilution, 18 hours at 35° C.
# Summary of the method: as §1
# Escherichia coli = conditions: 18 hours at 35° C.
compound,measurement,setting,value
CCCCCNC(=O)OC1C(CO)OC(OC2C(CO)OC(Oc3ccc(CC4NC(=O)C(C(C)c5ccccc5)NC(=O)CNC(=O)C(CO)NC(=O)C(C(O)C5CNC(=N)N5C5OC(CO)C(O)C(O)C5O)NC(=O)C(C(O)C5CNC(=N)N5)NC4=O)cc3)C(O)C2O)C(O)C1O (stereo not drawn) [Example 251],MIC Enterococcus avium (GC 4558),Enterococcus sp.,>64 µg/mL
same,MIC Enterococcus faecalis (ATCC 29212),Enterococcus sp.,>64 µg/mL
same,MIC Enterococcus faecalis (GC 2242),Enterococcus sp.,>64 µg/mL
same,MIC Enterococcus faecalis (GC 4552),Enterococcus sp.,>64 µg/mL
same,MIC Enterococcus faecalis (GC 4553),Enterococcus sp.,>64 µg/mL
same,MIC Enterococcus faecalis (GC 4554),Enterococcus sp.,>64 µg/mL
same,MIC Enterococcus faecium (GC 2243),Enterococcus sp.,>64 µg/mL
same,MIC Enterococcus faecium (GC 4556),Enterococcus sp.,>64 µg/mL
same,MIC Enterococcus faecium (GC 4557),Enterococcus sp.,64 µg/mL
same,MIC Enterococcus faecalis (ATCC 29212),Enterococcus sp.; strain ATCC 29212,>64 µg/mL
same,MIC Enterococcus faecalis (GC 2242),Enterococcus sp.; strain GC 2242,>64 µg/mL
same,MIC Enterococcus faecium (GC 2243),Enterococcus sp.; strain GC 2243,>64 µg/mL
same,MIC Enterococcus faecalis (GC 4552),Enterococcus sp.; strain GC 4552,>64 µg/mL
same,MIC Enterococcus faecalis (GC 4553),Enterococcus sp.; strain GC 4553,>64 µg/mL
same,MIC Enterococcus faecalis (GC 4554),Enterococcus sp.; strain GC 4554,>64 µg/mL
same,MIC Enterococcus faecium (GC 4556),Enterococcus sp.; strain GC 4556,>64 µg/mL
same,MIC Enterococcus faecium (GC 4557),Enterococcus sp.; strain GC 4557,64 µg/mL
same,MIC Enterococcus avium (GC 4558),Enterococcus sp.; strain GC 4558,>64 µg/mL
same,MIC Coagulase Negative Staphylococcus (GC 4547),Staphylococcus sp.,>64 µg/mL
same,MIC Coagulase Negative Staphylococcus (GC 4548),Staphylococcus sp.,>64 µg/mL
same,MIC Coagulase Negative Staphylococcus (GC 4549),Staphylococcus sp.,>64 µg/mL
same,MIC Coagulase Negative Staphylococcus (GC 4551),Staphylococcus sp.,>64 µg/mL
same,MIC Coagulase Negative Staphylococcus (ID-3941),Staphylococcus sp.,64 µg/mL
same,MIC Staphylococcus aureus (ATCC 29213),Staphylococcus sp.,>64 µg/mL
same,MIC Staphylococcus aureus (GC 1131),Staphylococcus sp.,>64 µg/mL
same,MIC Staphylococcus aureus (GC 4541),Staphylococcus sp.,>64 µg/mL
same,MIC Staphylococcus aureus (GC 4542),Staphylococcus sp.,>64 µg/mL
same,MIC Staphylococcus aureus (GC 4544),Staphylococcus sp.,>64 µg/mL
same,MIC Staphylococcus aureus (GC 4545),Staphylococcus sp.,>64 µg/mL
same,MIC Staphylococcus aureus-SMITH (GC 4543),Staphylococcus sp.,>64 µg/mL
same,MIC Staphylococcus haemolyticus (GC 4546),Staphylococcus sp.,>64 µg/mL
same,MIC Staphylococcus aureus (ATCC 29213),Staphylococcus sp.; strain ATCC 29213,>64 µg/mL
same,MIC Staphylococcus aureus (GC 1131),Staphylococcus sp.; strain GC 1131,>64 µg/mL
same,MIC Staphylococcus aureus (GC 4541),Staphylococcus sp.; strain GC 4541,>64 µg/mL
same,MIC Staphylococcus aureus (GC 4542),Staphylococcus sp.; strain GC 4542,>64 µg/mL
same,MIC Staphylococcus aureus-SMITH (GC 4543),Staphylococcus sp.; strain GC 4543,>64 µg/mL
same,MIC Staphylococcus aureus (GC 4544),Staphylococcus sp.; strain GC 4544,>64 µg/mL
same,MIC Staphylococcus aureus (GC 4545),Staphylococcus sp.; strain GC 4545,>64 µg/mL
same,MIC Staphylococcus haemolyticus (GC 4546),Staphylococcus sp.; strain GC 4546,>64 µg/mL
same,MIC Coagulase Negative Staphylococcus (GC 4547),Staphylococcus sp.; strain GC 4547,>64 µg/mL
same,MIC Coagulase Negative Staphylococcus (GC 4548),Staphylococcus sp.; strain GC 4548,>64 µg/mL
same,MIC Coagulase Negative Staphylococcus (GC 4549),Staphylococcus sp.; strain GC 4549,>64 µg/mL
same,MIC Coagulase Negative Staphylococcus (GC 4551),Staphylococcus sp.; strain GC 4551,>64 µg/mL
same,MIC Coagulase Negative Staphylococcus (ID-3941),Staphylococcus sp.; strain ID-3941,64 µg/mL
same,MIC Streptococcus agalactiae (GC 4564),Streptococcus sp.,>64 µg/mL
same,MIC Streptococcus pneumoniae (GC 4565),Streptococcus sp.,64 µg/mL
same,MIC Streptococcus pyogenes (ID-3187),Streptococcus sp.,64 µg/mL
same,MIC Streptococcus agalactiae (GC 4564),Streptococcus sp.; strain GC 4564,>64 µg/mL
same,MIC Streptococcus pneumoniae (GC 4565),Streptococcus sp.; strain GC 4565,64 µg/mL
same,MIC Streptococcus pyogenes (ID-3187),Streptococcus sp.; strain ID-3187,64 µg/mL
same,MIC Escherichia coli (ATCC 25922),Escherichia coli,>64 µg/mL
same,MIC Escherichia coli (GC 4559),Escherichia coli,>64 µg/mL
same,MIC Escherichia coli (GC 4560),Escherichia coli,4 µg/mL
COc1ccc(COCC2OC(OC3C(CO)OC(Oc4ccc(CC5NC(=O)C(C(C)c6ccccc6)NC(=O)CNC(=O)C(CO)NC(=O)C(C(O)C6CNC(=N)N6C6OC(CO)C(O)C(O)C6O)NC(=O)C(C(O)C6CNC(=N)N6)NC5=O)cc4)C(O)C3O)C(O)C(O)C2O)c2ccccc12 (stereo not drawn) [Example 240],MIC Enterococcus avium (GC 4558),Enterococcus sp.,4 µg/mL
same,MIC Enterococcus faecalis (ATCC 29212),Enterococcus sp.,16 µg/mL
same,MIC Enterococcus faecalis (GC 2242),Enterococcus sp.,16 µg/mL
same,MIC Enterococcus faecalis (GC 2691),Enterococcus sp.,8 µg/mL
same,MIC Enterococcus faecalis (GC 3059),Enterococcus sp.,8 µg/mL
same,MIC Enterococcus faecalis (GC 4552),Enterococcus sp.,16 µg/mL
same,MIC Enterococcus faecalis (GC 4553),Enterococcus sp.,16 µg/mL
same,MIC Enterococcus faecalis (GC 4554),Enterococcus sp.,16 µg/mL
same,MIC Enterococcus faecalis (GC 6189),Enterococcus sp.,8 µg/mL
same,MIC Enterococcus faecium (GC 2243),Enterococcus sp.,16 µg/mL
same,MIC Enterococcus faecium (GC 4556),Enterococcus sp.,16 µg/mL
same,MIC Enterococcus faecium (GC 4557),Enterococcus sp.,2 µg/mL
same,MIC Enterococcus faecalis (ATCC 29212),Enterococcus sp.; strain ATCC 29212,16 µg/mL
same,MIC Enterococcus faecium (GC 2243),Enterococcus sp.; strain GC 2243,16 µg/mL
same,MIC Enterococcus faecalis (GC 4552),Enterococcus sp.; strain GC 4552,16 µg/mL
same,MIC Enterococcus faecalis (GC 4553),Enterococcus sp.; strain GC 4553,16 µg/mL
same,MIC Enterococcus faecalis (GC 4554),Enterococcus sp.; strain GC 4554,16 µg/mL
same,MIC Enterococcus faecium (GC 4556),Enterococcus sp.; strain GC 4556,16 µg/mL
same,MIC Enterococcus faecium (GC 4557),Enterococcus sp.; strain GC 4557,2 µg/mL
same,MIC Enterococcus avium (GC 4558),Enterococcus sp.; strain GC 4558,4 µg/mL
same,MIC Enterococcus faecalis (GC 6189),Enterococcus sp.; strain GC 6189,8 µg/mL
same,MIC Enterococcus faecalis (GC 2242),"Enterococcus sp.; inoculum 5×10^5 CFU/mL, strain GC 2242",16 µg/mL
same,MIC Enterococcus faecalis (GC 2691),"Enterococcus sp.; inoculum 5×10^5 CFU/mL, strain GC 2691",8 µg/mL
same,MIC Enterococcus faecalis (GC 3059),"Enterococcus sp.; inoculum 5×10^5 CFU/mL, strain GC 3059",8 µg/mL
same,MIC Coagulase Negative Staphylococcus (GC 4547),Staphylococcus sp.,4 µg/mL
same,MIC Coagulase Negative Staphylococcus (GC 4548),Staphylococcus sp.,2 µg/mL
same,MIC Coagulase Negative Staphylococcus (GC 4549),Staphylococcus sp.,2 µg/mL
same,MIC Coagulase Negative Staphylococcus (GC 4551),Staphylococcus sp.,2 µg/mL
same,MIC Coagulase Negative Staphylococcus (GC 6257),Staphylococcus sp.,2 µg/mL
same,MIC Staphylococcus aureus (ATCC 29213),Staphylococcus sp.,4 µg/mL
same,MIC Staphylococcus aureus (GC 1131),Staphylococcus sp.,4 µg/mL
same,MIC Staphylococcus aureus (GC 3051),Staphylococcus sp.,0.5 µg/mL
same,MIC Staphylococcus aureus (GC 3053),Staphylococcus sp.,4 µg/mL
same,MIC Staphylococcus aureus (GC 4541),Staphylococcus sp.,1 µg/mL
same,MIC Staphylococcus aureus (GC 4542),Staphylococcus sp.,2 µg/mL
same,MIC Staphylococcus aureus (GC 4544),Staphylococcus sp.,4 µg/mL
same,MIC Staphylococcus aureus (GC 4545),Staphylococcus sp.,4 µg/mL
same,MIC Staphylococcus aureus-SMITH (GC 4543),Staphylococcus sp.,2 µg/mL
same,MIC Staphylococcus haemolyticus (GC 4546),Staphylococcus sp.,2 µg/mL
same,MIC Staphylococcus aureus (ATCC 29213),Staphylococcus sp.; strain ATCC 29213,4 µg/mL
same,MIC Staphylococcus aureus (GC 1131),Staphylococcus sp.; strain GC 1131,4 µg/mL
same,MIC Staphylococcus aureus (GC 3051),Staphylococcus sp.; strain GC 3051,0.5 µg/mL
same,MIC Staphylococcus aureus (GC 3053),Staphylococcus sp.; strain GC 3053,4 µg/mL
same,MIC Staphylococcus aureus (GC 4541),Staphylococcus sp.; strain GC 4541,1 µg/mL
same,MIC Staphylococcus aureus (GC 4542),Staphylococcus sp.; strain GC 4542,2 µg/mL
same,MIC Staphylococcus aureus-SMITH (GC 4543),Staphylococcus sp.; strain GC 4543,2 µg/mL
same,MIC Staphylococcus aureus (GC 4544),Staphylococcus sp.; strain GC 4544,4 µg/mL
same,MIC Staphylococcus aureus (GC 4545),Staphylococcus sp.; strain GC 4545,4 µg/mL
same,MIC Staphylococcus haemolyticus (GC 4546),Staphylococcus sp.; strain GC 4546,2 µg/mL
same,MIC Coagulase Negative Staphylococcus (GC 4547),Staphylococcus sp.; strain GC 4547,4 µg/mL
same,MIC Coagulase Negative Staphylococcus (GC 4548),Staphylococcus sp.; strain GC 4548,2 µg/mL
same,MIC Coagulase Negative Staphylococcus (GC 4549),Staphylococcus sp.; strain GC 4549,2 µg/mL
same,MIC Coagulase Negative Staphylococcus (GC 4551),Staphylococcus sp.; strain GC 4551,2 µg/mL
same,MIC Coagulase Negative Staphylococcus (GC 6257),Staphylococcus sp.; strain GC 6257,2 µg/mL
same,MIC Streptococcus agalactiae (GC 4564),Streptococcus sp.,0.5 µg/mL
same,MIC Streptococcus pneumoniae (ATCC 6301),Streptococcus sp.,<0.12 µg/mL
same,MIC Streptococcus pneumoniae (GC 1894),Streptococcus sp.,<0.12 µg/mL
same,MIC Streptococcus pneumoniae (GC 4565),Streptococcus sp.,0.25 µg/mL
same,MIC Streptococcus pyogenes (GC 4563),Streptococcus sp.,0.5 µg/mL
same,MIC Streptococcus pneumoniae (ATCC 6301),"Streptococcus sp.; inoculum 5×10^5 CFU/mL, strain ATCC 6301",<0.12 µg/mL
same,MIC Streptococcus pneumoniae (GC 1894),"Streptococcus sp.; inoculum 5×10^5 CFU/mL, strain GC 1894",<0.12 µg/mL
same,MIC Streptococcus pyogenes (GC 4563),"Streptococcus sp.; inoculum 5×10^5 CFU/mL, strain GC 4563",0.5 µg/mL
same,MIC Streptococcus agalactiae (GC 4564),"Streptococcus sp.; inoculum 5×10^5 CFU/mL, strain GC 4564",0.5 µg/mL
same,MIC Streptococcus pneumoniae (GC 4565),"Streptococcus sp.; inoculum 5×10^5 CFU/mL, strain GC 4565",0.25 µg/mL
same,MIC Escherichia coli (ATCC 25922),Escherichia coli,128 µg/mL
same,MIC Escherichia coli (GC 4559),Escherichia coli,>128 µg/mL
same,MIC Escherichia coli (GC 4560),Escherichia coli,2 µg/mL
